Laboratory results: patent US9945845B2, “Methods of screening using amphibians” (priority 2009, dated 2018)
“Also recorded” adds a separate entry of the source. Structures can show the parent of a compound that is named as a salt. Where two headings read alike, the source gives them in different places.

Assays:
Xenopus embryos = conditions: for Lethality (NF) / Onset (NF) / edema or other phenotype in compound-treated Xenopus embryos/tadpoles (in words): 20 μM, 1% DMSO; for Embr. phen.: embryonic phenotype in the primary screen; for Lethality: — = no stage of lethality given; for Onset (NF): onset of edema
In short: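 Stage 31 (37 hpf) Xenopus embryos, five per well, exposed to 20 µM compound in 1% DMSO at 23 °C for 4 days. Edema, lethality and other external phenotypes were scored daily by two investigators at stages 39, 41, 45 and 47.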

[1] = tested on: blood vessel development and/or lymphangiogenesis in Xenopus embryos; assay type: in vivo, Xenopus laevis; conditions: for blood vessel development phenotype (apj expression, in words): 20 μM from stage 31, fixed at stage 35/36; for lymph vessel development phenotype (vegfr3 expression, in words): 20 μM from stage 31, fixed at stage 42; for ALH phenotype: anterior lymph heart; for ALS phenotype: anterior lymph sac; for ISV phenotype: intersomitic vessels; for PCV phenotype: posterior cardinal vein; for PLV phenotype: posterior lymph vessels; for VVN phenotype: vitelline vein network
In short: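 Albino Xenopus embryos treated at 20 μM final (from 10-mM DMSO stocks) in screening medium, 7 per well, from stage 31 (37 hpf) to stage 35/36 (50 hpf) or 42 (80 hpf). Fixed in 4% paraformaldehyde and scored by whole-mount in situ hybridization: vasculogenesis and intersomitic vein angiogenesis at stage 35/36, lymph vessel development at stage 42.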

HUVEC [2] = test: HUVEC cell proliferation assay; assay type: cell-based, human; conditions: 10 μM in 0.1% DMSO, 48 hours; for activity at 10 µM: Homo sapiens, HUVEC, 48 h, read-out: HUVEC proliferation
Procedure: (§1) Human umbilical vein endothelial cells (HUVEC) were purchased from PromoCell. […] HUVEC and LEC were cultured in endothelial basal medium EBM (Cambrex) supplemented with 20% fetal bovine serum (Invitrogen), antibiotic-antimycotics (100 U/ml penicillin, 100 μg/ml streptomycin, 250 ng/ml amphotericin; Invitrogen). 2 mM L-glutamine (Invitrogen), 10 μg/ml hydrocortisone (Fluka) and 25 μg/ml N^6,2′-O-dibutyryladenosine 3′,5′-cyclic monophosphate sodium salt (Fluka) for up to eleven passages.
(§2) The intensity of fluorescence, which is proportional to the number of viable cells, was measured using a microplate reader (SpectraMax Gemini EM; Molecular Devices). The chemical treatments were performed in five replicates.
(§3) The cell proliferation assays were performed by treating the endothelial cell cultures with compounds at a screening dose of 10 μM in 0.1% DMSO for 48 hours (FIG. 6a; Table 10).

LEC [3] = test: LEC cell proliferation assay; assay type: cell-based, human; conditions: 10 μM in 0.1% DMSO, 48 hours; for activity at 10 µM: Homo sapiens, 48 h, read-out: LEC proliferation
Procedure: as §1, §2, §3

HUVEC [4] = test: HUVEC tube formation assay; assay type: cell-based, human; conditions: 1 μM in 0.1% DMSO; for activity at 1 µM: Homo sapiens, HUVEC
Procedure: as §1
(§4) The effect of the selected chemicals on the formation of tube-like structures was performed as follows. […] After overnight incubation at 37° C. the treated cell cultures were fixed with 4% paraformaldehyde. Each chemical treatment was performed in triplicate and the experiment was repeated at least three times. Three representative images of hotspots with tube-like structures were taken per well using a digital camera (AxioCam MRm, Carl Zeiss) mounted on an inverted microscope (Axiovert 200M, Carl Zeiss). The length of the tube-like structures was measured using the IPLab software (BD Biosciences). For each experimental condition, results are represented as average total tube length (μm) per area (three image fields).
(§5) The effects of the selected compounds on endothelial tube formation was assessed after over treatment of LEC and HUVEC cultures at a compound concentration of 1 μM in 0.1% DMSO. The length of the tube-like structures was measured using the IPLab software.

LEC [5] = test: cells; assay type: cell-based, human; conditions: 1 μM in 0.1% DMSO; for activity at 1 µM: Homo sapiens
Procedure: as §1, §4, §5

[6] = compounds causing edema, treatment from stage 31, scored to stage 47
[7] = treatment from stage 31, Nieuwkoop & Faber stage
[8] = overnight, read-out: HUVEC tube formation
[9] = read-out: HUVEC tube formation (tube length)
[10] = overnight, read-out: LEC tube formation
[11] = read-out: LEC tube formation (tube length)
[12] = compounds causing lethality, treatment from stage 31, Nieuwkoop & Faber stage

SMILES | Lethality (NF) (Xenopus embryos; [6]) | Type of edema Pericordial (Xenopus embryos; embryonic stage) | Lethality (Xenopus embryos; embryonic stage) | Onset (NF) (Xenopus embryos; [7]) | blood vessel development phenotype (apj expression, in words) [1] | ALH phenotype ([1]; Xenopus embryos) | ALS phenotype ([1]; Xenopus embryos) | ISV phenotype ([1]; Xenopus embryos) | PCV phenotype ([1]; Xenopus embryos) | PLV phenotype ([1]; Xenopus embryos) | VVN phenotype ([1]; Xenopus embryos) | activity at 10 µM (HUVEC [2]) [%] | activity at 10 µM (LEC [3]) [%] | activity at 1 µM (HUVEC [4]; [8]) [%] | activity at 1 µM (HUVEC [4]; [9]) [%] | activity at 1 µM (LEC [5]; [10]) [%] | activity at 1 µM (LEC [5]; [11]) [%] | other results
Nc1ncnc2c1c(-c1ccc(Oc3ccccc3)cc1)cn2C1CCCC1 [7-Cyclopentyl-5-(4-phenoxy)phenyl-7H-pyrrolo[2,3-d]pyrimidin-4-ylamine] | 45 NF | 41/42 | 45 embryonic stages according to Nieuwkoop and Faber (NF) | 41/42 | interfered with angiogenic ISV sprouting but not with VVN assembly | impaired | impaired | stunted | normal | hypoplastic | normal |  |  |  |  |  |  | Embr. phen. (Xenopus embryos): EDE; Type of edema Pronephric (Xenopus embryos; embryonic stage): 41/42; lymph vessel development phenotype (vegfr3 expression, in words) [1]: lymphangiogenesis was strongly suppressed; HUVEC proliferation (HUVEC [2]): O (O, inactive or marginal effects (85-115% of control);); LEC proliferation (LEC [3]): O (O, inactive or marginal effects (85-115% of control);); HUVEC tube formation (HUVEC [4]; overnight): − − (− −, strong inhibition (<50% of control);); LEC tube formation (LEC [5]; overnight): − − (− −, strong inhibition (<50% of control);)
O=c1c(-c2ccc(O)cc2)coc2cc(O)cc(O)c12 [Genistein, 5,7-Dihydroxy-3-(4-hydroxyphenyl)-4H-1-benzopyran-4-one] | 46 NF |  | 41/42 | 35/36 | stunted ISVs and hyperplastic VVN | impaired | impaired | stunted | normal | impaired | hyperplastic | 85 to 115 | 85 to 115 | 50 to 85 | 50 to 85 | 50 to 85 | 50 to 85 | edema or other phenotype in compound-treated Xenopus embryos/tadpoles (in words) (Xenopus embryos; treatment from stage 31): edemas localized to the tail tip; Type of edema Tail tip (Xenopus embryos; embryonic stage): 35/36; lymph vessel development phenotype (vegfr3 expression, in words) [1]: lymphatic vessels and LECs were absent
COc1cc(OC)c(C=C2C(O)=Nc3ccccc32)c(OC)c1 [IC 261, 1,3-Dihydro-3-[(2,4,6-trimethoxyphenyl)methylene]-2H-indol-2-one] | 41/42 | 35/36 | 41/42 | 35/36 | interfered with blood vessel vasculogenesis and PCV assembly |  |  | impaired | hypoplastic |  | hypoplastic | 85 to 115 | 50 to 85 | 50 to 85 | 50 to 85 | 50 to 85 | 50 to 85 | Type of edema Proctodeal (Xenopus embryos; embryonic stage): 41/42; Type of edema Pronephric (Xenopus embryos; embryonic stage): 41/42; effect on LEC proliferation (in words) (LEC [3]): inhibited preferentially LEC proliferation
CCCCOC(=O)NS(=O)(=O)c1sc(CC(C)C)cc1-c1ccc(Cn2c(CC)nc3c(C)cc(C)nc32)cc1 [L-162,313] |  |  |  |  | potent inhibitors of developmental angiogenesis |  |  | impaired | normal |  | hypoplastic |  |  |  |  |  |  | Lethality (NF) (Xenopus embryos; [12]): 45 NF; Embr. phen. (Xenopus embryos): LET; Lymphatic phenotype ([1]; Xenopus embryos): normal; HUVEC proliferation (HUVEC [2]): + (+, moderate promotion (>115-150% of control).); LEC proliferation (LEC [3]): O (O, inactive or marginal effects (85-115% of control);); HUVEC tube formation (HUVEC [4]; overnight): − (−, moderate inhibition (50-85% of control):); LEC tube formation (LEC [5]; overnight): − (−, moderate inhibition (50-85% of control):)
CC(C)c1ccc2c(c1)c(SC(C)(C)C)c(CC(C)(C)C(=O)[O-])n2Cc1ccc(Cl)cc1.[Na+] [MK-886, 3[3-tert-Butylthio-1-(4-chlorobenzyl)-5-isopropyl-1H-indol-2-yl]-2,2-dimethylpropionic acid, sodium salt] |  |  |  |  | hypoplasia of the VVN |  |  | normal | normal |  | hypoplastic | 115 to 150 | 85 to 115 | 50 to 85 | 50 to 85 | 50 to 85 | 50 to 85 | edema or other phenotype in compound-treated Xenopus embryos/tadpoles (in words) (Xenopus embryos; treatment from stage 31): causing lethality; Lethality (NF) (Xenopus embryos; [12]): 39 NF; Phenotype class in vivo ([1]; Xenopus embryos, 20 μM, vascular phenotype): VVN hypoplasia
COC(=O)C1=C(C)NC(C)=C(C(=O)OCCN(C)Cc2ccccc2)C1c1cccc([N+](=O)[O-])c1 (stereo not drawn) [Nicardipine hydrochloride] | 45 NF | 41/42 | 45 embryonic stages according to Nieuwkoop and Faber (NF) | 41/42 |  | dysplastic | dysplastic |  |  | hypoplastic |  | 85 to 115 | 85 to 115 | 85 to 115 | 85 to 115 | 85 to 115 | 85 to 115 | Type of edema Ventral (Xenopus embryos; embryonic stage, ‡ = edemas also detected in the gut): 41/42; lymph vessel development phenotype (vegfr3 expression, in words) ([1]; hydrochloride): inhibiting preferentially lymphatic vascular development; also recorded: discontinuatous, dysplastic lymphatic vessels; Blood vessel phenotype ([1]; Xenopus embryos): normal
COC(=O)Nc1nc2ccc(C(=O)c3cccs3)cc2[nH]1 [Nocodazole] | 33/34 | 33/34 | 33/34 | 33/34 | interfered with blood vessel vasculogenesis and PCV assembly |  |  | impaired | hypoplastic |  | hypoplastic | 65 to 82 | 65 to 82 | < 50 | < 35 | < 50 | < 35 | 
